Laboratory results from patent US10870647B2, “Imidazopyridine derivative, method for preparing same, and pharmaceutical composition containing same as active ingredient for preventing or treating cancer” (DAEGU-GYEONGBUK MEDICAL INNOVATION FOUNDATION, priority 2016, dated 2020).

Tests used:
Assay in all cases: Kinase selectivity, scanMAX Kinase assay panel (DiscoverX), % control at 1 uM
Format in all cases: binding
[1] = biological target: T1, scanMAX Kinase assay panel (Homo sapiens, UniProt P36888, K663Q); settings: FLT3 (K663Q); 1 uM; read-out: Percent Control (%)
T1 construct: purchased DiscoverX
T1 sequence (P36888 27-993 K663Q): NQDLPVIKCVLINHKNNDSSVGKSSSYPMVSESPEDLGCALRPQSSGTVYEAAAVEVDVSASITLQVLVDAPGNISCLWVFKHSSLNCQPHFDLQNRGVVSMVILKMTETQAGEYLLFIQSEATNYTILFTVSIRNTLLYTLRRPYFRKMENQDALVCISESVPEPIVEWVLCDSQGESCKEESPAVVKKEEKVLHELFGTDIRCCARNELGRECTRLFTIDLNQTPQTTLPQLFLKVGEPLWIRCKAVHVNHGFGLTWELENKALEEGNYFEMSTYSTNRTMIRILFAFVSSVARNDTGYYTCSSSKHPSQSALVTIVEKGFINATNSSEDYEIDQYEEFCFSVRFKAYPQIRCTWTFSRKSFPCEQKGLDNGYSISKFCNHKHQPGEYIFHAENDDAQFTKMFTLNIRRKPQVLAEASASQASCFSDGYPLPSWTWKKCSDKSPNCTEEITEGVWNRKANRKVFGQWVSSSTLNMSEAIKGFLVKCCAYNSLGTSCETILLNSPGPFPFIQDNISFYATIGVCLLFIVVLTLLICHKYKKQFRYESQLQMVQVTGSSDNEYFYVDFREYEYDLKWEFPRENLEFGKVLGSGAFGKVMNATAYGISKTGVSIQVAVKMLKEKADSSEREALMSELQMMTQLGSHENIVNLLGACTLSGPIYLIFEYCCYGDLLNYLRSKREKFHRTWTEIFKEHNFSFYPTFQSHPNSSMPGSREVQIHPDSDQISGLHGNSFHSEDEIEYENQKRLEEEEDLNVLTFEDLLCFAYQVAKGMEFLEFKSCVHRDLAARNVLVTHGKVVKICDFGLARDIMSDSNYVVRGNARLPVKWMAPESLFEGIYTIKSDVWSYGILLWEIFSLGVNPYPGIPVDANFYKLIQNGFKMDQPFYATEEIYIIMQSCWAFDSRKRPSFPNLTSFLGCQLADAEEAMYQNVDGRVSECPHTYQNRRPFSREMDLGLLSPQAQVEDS
How it was run: (§1)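 Single-point screen at 1 uM compound in DMSO. Lower % control means stronger inhibition, with the cutoff for activity set at <35%.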

[2] = biological target: T2, scanMAX Kinase assay panel (Homo sapiens, UniProt P42345); settings: MTOR; 1 uM; read-out: Percent Control (%)
T2 construct: purchased DiscoverX
How it was run: as §1

[3] = biological target: T3, scanMAX Kinase assay panel (Homo sapiens, UniProt P50613); settings: CDK7; 1 uM; read-out: Percent Control (%)
T3 construct: purchased DiscoverX
T3 sequence (P50613 whole entry): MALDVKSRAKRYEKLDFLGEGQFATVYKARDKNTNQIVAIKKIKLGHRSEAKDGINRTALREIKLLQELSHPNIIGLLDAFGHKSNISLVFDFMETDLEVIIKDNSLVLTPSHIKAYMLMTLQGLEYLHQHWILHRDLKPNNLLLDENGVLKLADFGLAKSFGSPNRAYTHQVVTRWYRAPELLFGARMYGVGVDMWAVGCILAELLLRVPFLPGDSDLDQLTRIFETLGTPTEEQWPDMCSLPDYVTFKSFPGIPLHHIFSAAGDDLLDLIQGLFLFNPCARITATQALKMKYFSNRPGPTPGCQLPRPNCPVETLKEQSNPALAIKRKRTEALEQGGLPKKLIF
How it was run: as §1

[4] = biological target: T4, scanMAX Kinase assay panel (Homo sapiens, UniProt Q13557); settings: CAMK2D; 1 uM; read-out: Percent Control (%)
T4 construct: purchased DiscoverX
T4 sequence (Q13557 whole entry): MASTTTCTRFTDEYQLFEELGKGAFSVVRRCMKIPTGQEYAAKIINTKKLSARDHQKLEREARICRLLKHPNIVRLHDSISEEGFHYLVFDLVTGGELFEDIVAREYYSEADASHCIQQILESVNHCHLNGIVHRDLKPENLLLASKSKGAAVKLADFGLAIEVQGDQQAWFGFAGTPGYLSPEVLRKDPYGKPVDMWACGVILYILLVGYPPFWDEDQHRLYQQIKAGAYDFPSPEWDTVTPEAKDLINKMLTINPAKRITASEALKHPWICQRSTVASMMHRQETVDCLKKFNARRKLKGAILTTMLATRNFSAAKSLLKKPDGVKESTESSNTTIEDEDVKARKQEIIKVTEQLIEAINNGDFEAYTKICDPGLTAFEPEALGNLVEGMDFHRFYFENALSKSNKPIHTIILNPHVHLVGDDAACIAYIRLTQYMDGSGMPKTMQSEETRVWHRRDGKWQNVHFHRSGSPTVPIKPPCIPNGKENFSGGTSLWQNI
How it was run: as §1

[5] = biological target: T5, scanMAX Kinase assay panel (Homo sapiens, UniProt Q14012); settings: CAMK1; 1 uM; read-out: Percent Control (%)
T5 construct: purchased DiscoverX
T5 sequence (Q14012 whole entry): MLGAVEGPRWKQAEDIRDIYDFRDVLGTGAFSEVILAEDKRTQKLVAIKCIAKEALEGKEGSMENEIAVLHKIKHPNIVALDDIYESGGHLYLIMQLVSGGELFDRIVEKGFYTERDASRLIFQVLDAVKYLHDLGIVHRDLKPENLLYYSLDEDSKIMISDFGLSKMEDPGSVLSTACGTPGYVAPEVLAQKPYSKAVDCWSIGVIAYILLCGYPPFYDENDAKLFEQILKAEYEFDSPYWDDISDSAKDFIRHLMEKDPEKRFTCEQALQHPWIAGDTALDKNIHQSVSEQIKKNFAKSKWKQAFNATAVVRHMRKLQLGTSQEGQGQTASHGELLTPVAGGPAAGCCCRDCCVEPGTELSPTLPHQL
How it was run: as §1

[6] = biological target: T6, scanMAX Kinase assay panel (Homo sapiens, UniProt Q8IY84); settings: NIM1; 1 uM; read-out: Percent Control (%)
T6 construct: purchased DiscoverX
T6 sequence (Q8IY84 whole entry): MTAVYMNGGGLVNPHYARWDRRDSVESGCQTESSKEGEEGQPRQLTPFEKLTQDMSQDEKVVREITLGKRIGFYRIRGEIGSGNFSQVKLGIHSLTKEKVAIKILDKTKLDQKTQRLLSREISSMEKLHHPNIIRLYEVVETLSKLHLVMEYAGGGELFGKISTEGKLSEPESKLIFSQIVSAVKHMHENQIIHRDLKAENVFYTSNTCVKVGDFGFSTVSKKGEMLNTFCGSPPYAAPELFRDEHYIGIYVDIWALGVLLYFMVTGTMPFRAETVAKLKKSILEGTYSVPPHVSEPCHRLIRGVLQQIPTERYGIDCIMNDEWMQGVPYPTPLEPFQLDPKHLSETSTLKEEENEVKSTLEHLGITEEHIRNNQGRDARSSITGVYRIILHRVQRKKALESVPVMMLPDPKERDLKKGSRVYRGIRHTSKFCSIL
How it was run: as §1

[7] = biological target: T7, scanMAX Kinase assay panel (Homo sapiens, UniProt Q8TDC3); settings: BRSK1; 1 uM; read-out: Percent Control (%)
T7 construct: purchased DiscoverX
T7 sequence (Q8TDC3 1-778): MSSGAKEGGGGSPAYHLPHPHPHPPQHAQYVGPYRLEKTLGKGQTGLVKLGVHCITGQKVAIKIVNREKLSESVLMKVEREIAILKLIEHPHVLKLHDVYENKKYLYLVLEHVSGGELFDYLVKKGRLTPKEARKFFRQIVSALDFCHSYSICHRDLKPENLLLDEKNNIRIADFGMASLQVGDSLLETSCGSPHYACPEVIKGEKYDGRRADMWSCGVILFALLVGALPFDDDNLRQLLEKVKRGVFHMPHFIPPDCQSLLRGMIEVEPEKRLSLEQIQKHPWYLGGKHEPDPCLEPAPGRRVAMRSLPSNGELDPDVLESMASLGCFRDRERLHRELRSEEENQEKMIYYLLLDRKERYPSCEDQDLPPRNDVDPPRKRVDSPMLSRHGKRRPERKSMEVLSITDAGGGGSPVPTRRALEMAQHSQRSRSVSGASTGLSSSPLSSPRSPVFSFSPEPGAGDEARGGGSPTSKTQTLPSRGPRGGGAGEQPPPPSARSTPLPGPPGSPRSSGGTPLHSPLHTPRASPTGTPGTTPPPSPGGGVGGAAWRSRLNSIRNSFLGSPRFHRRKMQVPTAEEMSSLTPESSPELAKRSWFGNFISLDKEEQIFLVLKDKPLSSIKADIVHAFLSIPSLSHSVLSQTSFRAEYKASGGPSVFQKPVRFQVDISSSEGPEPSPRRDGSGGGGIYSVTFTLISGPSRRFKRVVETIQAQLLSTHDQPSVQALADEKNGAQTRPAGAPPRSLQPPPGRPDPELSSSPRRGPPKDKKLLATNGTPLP
How it was run: as §1

[8] = biological target: T8, scanMAX Kinase assay panel (Homo sapiens, UniProt Q9BQI3); settings: EIF2AK1; 1 uM; read-out: Percent Control (%)
T8 construct: purchased DiscoverX
T8 sequence (Q9BQI3 whole entry): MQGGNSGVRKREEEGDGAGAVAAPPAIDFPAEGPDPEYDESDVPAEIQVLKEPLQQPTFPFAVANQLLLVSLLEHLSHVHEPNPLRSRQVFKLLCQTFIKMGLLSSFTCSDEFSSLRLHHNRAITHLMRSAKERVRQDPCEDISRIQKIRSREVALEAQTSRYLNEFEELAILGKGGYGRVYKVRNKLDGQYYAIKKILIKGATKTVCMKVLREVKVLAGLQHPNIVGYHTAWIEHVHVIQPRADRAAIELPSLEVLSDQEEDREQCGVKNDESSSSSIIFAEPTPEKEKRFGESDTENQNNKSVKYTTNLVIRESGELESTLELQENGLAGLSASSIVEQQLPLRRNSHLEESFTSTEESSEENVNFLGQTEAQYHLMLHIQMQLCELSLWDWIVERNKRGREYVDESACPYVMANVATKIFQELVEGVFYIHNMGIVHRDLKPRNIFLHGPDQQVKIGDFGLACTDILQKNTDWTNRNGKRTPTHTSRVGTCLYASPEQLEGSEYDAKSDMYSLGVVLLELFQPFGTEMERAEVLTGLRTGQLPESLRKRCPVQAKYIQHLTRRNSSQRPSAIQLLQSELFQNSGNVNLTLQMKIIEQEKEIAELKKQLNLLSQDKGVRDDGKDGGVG
How it was run: as §1

[9] = biological target: T9, scanMAX Kinase assay panel (Homo sapiens, UniProt Q9UM73); settings: ALK; 1 uM; read-out: Percent Control (%)
T9 construct: purchased DiscoverX
T9 sequence (Q9UM73 19-1620): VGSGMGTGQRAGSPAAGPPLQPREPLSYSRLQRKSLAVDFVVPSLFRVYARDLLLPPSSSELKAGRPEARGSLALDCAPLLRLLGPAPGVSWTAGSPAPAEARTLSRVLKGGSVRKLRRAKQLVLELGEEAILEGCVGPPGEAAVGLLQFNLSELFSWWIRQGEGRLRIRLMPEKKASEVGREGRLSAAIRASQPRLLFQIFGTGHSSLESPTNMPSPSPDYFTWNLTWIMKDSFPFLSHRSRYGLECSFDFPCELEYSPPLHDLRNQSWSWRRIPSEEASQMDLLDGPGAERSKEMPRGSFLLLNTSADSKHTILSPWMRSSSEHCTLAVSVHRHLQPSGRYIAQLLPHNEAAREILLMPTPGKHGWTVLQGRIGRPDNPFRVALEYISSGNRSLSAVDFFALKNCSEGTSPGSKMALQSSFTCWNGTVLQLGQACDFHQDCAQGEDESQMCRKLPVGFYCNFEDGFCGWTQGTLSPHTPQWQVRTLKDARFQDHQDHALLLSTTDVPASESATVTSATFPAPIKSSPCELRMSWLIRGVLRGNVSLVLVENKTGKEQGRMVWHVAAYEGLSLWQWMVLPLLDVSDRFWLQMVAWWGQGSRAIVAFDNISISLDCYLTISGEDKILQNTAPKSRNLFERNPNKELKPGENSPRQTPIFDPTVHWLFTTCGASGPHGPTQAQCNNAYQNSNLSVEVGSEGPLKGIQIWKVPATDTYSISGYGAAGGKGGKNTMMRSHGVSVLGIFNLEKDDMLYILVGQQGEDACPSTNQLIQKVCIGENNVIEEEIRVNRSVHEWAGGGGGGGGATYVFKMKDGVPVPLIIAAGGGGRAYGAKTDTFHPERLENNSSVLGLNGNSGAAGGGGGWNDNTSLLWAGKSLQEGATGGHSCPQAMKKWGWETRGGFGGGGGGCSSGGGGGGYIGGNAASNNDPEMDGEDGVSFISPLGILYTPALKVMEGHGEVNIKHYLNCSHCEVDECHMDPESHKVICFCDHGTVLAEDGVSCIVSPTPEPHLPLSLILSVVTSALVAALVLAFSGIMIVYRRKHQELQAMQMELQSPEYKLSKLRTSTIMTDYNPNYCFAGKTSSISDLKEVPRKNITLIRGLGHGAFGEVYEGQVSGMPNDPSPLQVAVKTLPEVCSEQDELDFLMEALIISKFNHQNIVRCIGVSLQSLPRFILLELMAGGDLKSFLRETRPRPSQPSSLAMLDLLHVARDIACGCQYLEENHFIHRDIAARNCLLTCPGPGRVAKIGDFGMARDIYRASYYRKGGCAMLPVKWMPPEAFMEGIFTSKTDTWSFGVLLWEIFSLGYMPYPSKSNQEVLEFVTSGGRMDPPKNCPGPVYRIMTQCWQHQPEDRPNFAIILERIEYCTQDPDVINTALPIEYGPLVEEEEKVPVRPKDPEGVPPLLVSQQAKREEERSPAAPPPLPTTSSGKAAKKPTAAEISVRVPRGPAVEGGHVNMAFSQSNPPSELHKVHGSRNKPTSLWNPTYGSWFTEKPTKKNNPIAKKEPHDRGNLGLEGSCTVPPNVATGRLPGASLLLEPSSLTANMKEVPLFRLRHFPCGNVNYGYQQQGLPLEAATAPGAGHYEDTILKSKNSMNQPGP
How it was run: as §1

| SMILES | remaining binding at 1 µM [1] | remaining binding at 1 µM [2] | remaining binding at 1 µM [3] | remaining binding at 1 µM [4] | remaining binding at 1 µM [5] | remaining binding at 1 µM [6] | remaining binding at 1 µM [7] | remaining binding at 1 µM [8] | remaining binding at 1 µM [9] |
| --- | --- | --- | --- | --- | --- | --- | --- | --- | --- |
| Cc1ccc(C(=O)Nc2ccc(CN3CCN(C)CC3)c(C(F)(F)F)c2)cc1C#Cc1cnc2c(Nc3cnn(C)c3)cccn12 [Example 1, 4-methyl-3-((8-((1-methyl-1H-pyrazol-4-yl)amino)imidazo[1,2-a]pyridin-3-yl)ethynyl)-N-(4-((4-methylpiperazin-1-yl)methyl)-3-(trifluoromethyl)phenyl)benzamide] | 2% | 77% | 4% | 82% | 35% | 92% | 100% | 67% | 70% |
| Cc1cn(-c2cc(NC(=O)c3ccc(C)c(C#Cc4cnc5c(Nc6cnn(C)c6)cccn45)c3)cc(C(F)(F)F)c2)cn1 [Example 12, 4-methyl-N-(3-(4-methyl-1H-imidazol-1-yl)-5-(trifluoromethyl)phenyl)-3-((8-((1-methyl-1H-pyrazol-4-yl)amino)imidazo[1,2-a]pyridin-3-yl)ethynyl)benzamide] | 1% | 66% | 66% | 78% | 73% | 100% | 83% | 95% | 100% |
| Cc1ccc(NC(=O)C2(C(=O)Nc3ccc(F)cc3)CC2)cc1C#Cc1cnc2c(Nc3cnn(C(C)C)c3)cccn12 [Example 78] | 74% | 91% | 82% | 100% | 100% | 100% | 100% | 94% | 100% |
